Tests used:
[1] = Dissolution test (paddle method, Japanese Pharmacopoeia); assay type: physicochemical; conditions: summary of Test Example 1
Description: Thus, the concentrations of the compound a after 5, 10, 15, 30, 45 and 60 minutes were measured. The sample solution collected at each time point was filtered through a membrane filter made of PTFE (DISMIC-25HP manufactured by Toyo Roshi Kaisha, Ltd.) having a pore size of 0.45 μm, and was analyzed by a high performance liquid chromatographic method using a reversed phase column (manufactured by Nomura Chemical Co., Ltd.; Develosil ODS-HG-5). Thus, the dissolution rates were calculated.

[2] = Solubility in water; assay type: physicochemical

dissolubility, result in words [1]: hardly dissolved | solubility in water [2]: 0.05 % (W/V)
SMILES: CSc1cc(C)nc(SC)c1NC(=O)CN1CCN(CCSc2nc3ccccc3[nH]2)CC1 [compound a, 2-[4-[2-(Benzimidazol-2-ylthio)ethyl]piperazin-1-yl]-N-[2,4-bis(methylthio)-6-methyl-3-pyridyl]acetamide]
